Laboratory results as given in patent publication US10227369B2, “Short-chain fatty acid hexosamine analogs and their use in tissue engineering applications” (THE JOHNS HOPKINS UNIVERSITY, priority 2013, dated 2019).
“Also recorded” adds a separate entry of the source.

Tests used:
Format in all cases: cell-based, bovine
[1] = test system: IL-1β-stimulated chondrocytes; test: IL-1β-stimulated chondrocytes in 3D PEGDA hydrogels: biochemical analysis (DNA, sGAG, collagen), histology, immunohistochemistry; details: 10 ng/ml IL-1β; for DNA content of cell-laden hydrogels (cell viability): 21 days exposure, up to 150 μM
Experimental: (§1) Cell Isolation and Culturing. Bovine chondrocytes were isolated from 4- to 8-week-old calves (Research 87, Inc., Boylston, Mass.), as previously described. Briefly, cartilage was dissected from the femoral patellar groove and condyles and minced into approximately 1 mm^2 pieces. Cells were isolated from the tissue by digesting overnight at 37° C. with 2 mg/ml type II collagenase (Worthington Biochemical Corp., Lakewood, N.J.), 5% fetal bovine serum (FBS), 100 U/ml penicillin and 100 μg/ml streptomycin on an orbital shaker. The cell suspension was passed through a 70 μm cell strainer, followed by centrifugation. Cells were washed 3 times using sterile phosphate buffered saline (PBS). Chondrocyte medium was composed of high glucose Dulbecco's Modified Eagle's Medium (DMEM) supplemented with 10 mM HEPES, 0.4 mM L-proline, 50 μg/ml ascorbic acid, 10% (v/v) fetal bovine serum (FBS; Hyclone Laboratories, Inc., Logan, Utah), 0.1 mM non-essential amino acids, 100 U/ml penicillin and 100 μg/ml streptomycin.
(§2) Photoencapsulation in Poly(Ethylene Glycol)-Diacrylate (PEGDA) Hydrogels and Construct Culturing. For all 3D culture experiments, cells were photoencapsulated in PEGDA hydrogels, as previously described. Briefly, 100 mg PEGDA (3.4 kDa, SunBio, Anyang City, South Korea) was dissolved in 1 ml sterile PBS. A photoinitiator solution of Irgacure® 2959 (CIBA Specialty Chemicals) was prepared by dissolving 100 mg of Irgacure® 2959 in 1 ml 70% ethanol. Five microliters of the Irgacure® 2959 solution was added to 1 ml of PEGDA solution. Cells were suspended in the hydrogel precursor solution at a density of 20 million cells/ml and polymerized in sterile molds. A high cell density was chosen as it has been shown. Based on our previous studies a high cell density was chosen to best to support a cell phenotype and differentiation and cell phenotype. Polymerization was carried out using UV light (365 nm, 3.2 mW/cm^2) exposure for 5 minutes.
(§3) For chondrocyte experiments, the cell-laden hydrogels were cultured in chondrocyte medium supplemented with 10 ng/ml IL-1β for 3 days. Following the initial 3 days, constructs were cultured with medium containing specific concentrations of hexosamine analog with 10 ng/ml IL-1β for an additional 21 days. The medium was changed 3 times per week.
(§4) Biochemical Analysis. The constructs (n=3 for chondrocyte experiments and n=4 for chondrogenic experiments) were lyophilized for 48 hours and the dry weights measured. Constructs were then homogenized in 125 μg/ml papainase (Worthington Biochemical Corp., Lakewood, N.J.) and digested for 16 hours at 60° C. Quantification of DNA content was carried out using a Hoescht Dye 33342 DNA assay. Calf thymus DNA was used to generate standard curves. Quantification of sulfated glycosaminoglycans (sGAG), a molecule found in cartilage ECM, was carried out using a 1,9-dimethylmethylene blue (DMMB) dye assay; chondroitin sulfate was used to generate standard curves. Quantification of collagen was carried out via measuring hydroxyproline content after hydrolyzing in 6 N HCl overnight at 120° C. The reaction of hydroxyproline with chloramine-T and p-dimethylaminobenzaldehyde was performed as a measure of total collagen content; hydroxyproline was used to generate standard curves.
Histology and Immunohistochemistry. Constructs were fixed in 10% formalin or 4% paraformaldehyde followed by dehydration in increasing concentrations of ethanol, embedded in paraffin and sliced into 5 μm sections. After paraffin removal and subsequent rehydration, sections were stained for proteoglycans using Safranin-O and fast green or prepared for immunohistochemistry. For immunohistochemical staining of type II collagen, endogenous peroxidase was quenched using 3% (v/v) hydrogen peroxide in methanol. Sections were then incubated at 37° C. with 2.5% (w/v) hyaluronidase and stained using a Histostain-SP Kit (AEC, Broad Spectrum) (Life Technologies, Grand Island, N.Y.) following the manufacturer's instructions. […]

[2] = test system: IL-1β-stimulated chondrocytes; test: IL-1β-stimulated chondrocytes in 3D PEGDA hydrogels: real-time PCR gene expression; details: 10 ng/ml IL-1β, 21 days
Experimental: as §1, §2, §3
(§5) RNA Isolation and Real-Time PCR. Total RNA was extracted using TRIzol® reagent (Life Technologies, Grand Island, N.Y.) following the manufacturer's protocol. cDNA was synthesized using Superscript® II reverse transcriptase (Life Technologies, Grand Island, N.Y.) following the manufacturer's protocol. Real-time PCR was carried out using a StepOnePlus™ Real-Time PCR System (Life Technologies, Grand Island, N.Y.). mRNA amounts for bovine primers were calculated using the ΔΔCt method. Relative mRNA quantities for goat primers were calculated using the Pfaffl method.

[3] = test system: IL-1β stimulated chondrocytes; test: Monolayer chondrocytes with IL-1β: real-time PCR of NFκB target genes; details: 50 μM, 10 ng/ml IL-1β
Experimental: as §1
Monolayer cell culture. […]
RNA Isolation and Real-Time PCR. […] Real-time PCR was carried out using a StepOnePlus™ Real-Time PCR System (Life Technologies, Grand Island, N.Y.). mRNA amounts for bovine primers were calculated using the ΔΔCt method. Relative mRNA quantities for goat primers were calculated using the Pfaffl method.

[4] = test system: unstimulated chondrocytes; test: Unstimulated (no IL-1β) chondrocytes in 3D PEGDA hydrogels: biochemical analysis and histology; details: for DNA content of cell-laden hydrogels (cell viability): 21 days exposure; for sGAG deposition / total collagen accumulation / type II collagen immunostaining: 21 days
Experimental: as §1, §2, §4
Histology and Immunohistochemistry. Constructs were fixed in 10% formalin or 4% paraformaldehyde followed by dehydration in increasing concentrations of ethanol, embedded in paraffin and sliced into 5 μm sections. After paraffin removal and subsequent rehydration, sections were stained for proteoglycans using Safranin-O and fast green or prepared for immunohistochemistry. For immunohistochemical staining of type II collagen, endogenous peroxidase was quenched using 3% (v/v) hydrogen peroxide in methanol. Sections were then incubated at 37° C. with 2.5% (w/v) hyaluronidase and stained using a Histostain-SP Kit (AEC, Broad Spectrum) (Life Technologies, Grand Island, N.Y.) following the manufacturer's instructions. Primary antibody for type II collagen (Fitzgerald Industries International, Acton, Mass.) was used at a dilution of 1:100 in 1% (w/v) BSA dissolved in PBS.

[5] = test system: unstimulated chondrocytes; test: Unstimulated (no IL-1β) chondrocytes in 3D PEGDA hydrogels: real-time PCR gene expression; details: 21 days
Experimental: as §1, §2, §5

[6] = concentrations similar to increased ECM accumulation
[7] = across the concentrations evaluated

SMILES: CCCC(=O)OC[C@H]1OC(O)[C@H](NC(C)=O)[C@@H](OC(=O)CCC)[C@@H]1OC(=O)CCC (some centres unmarked) [GlcNAc-a, 3,4,6-O-Bu3GlcNAc]
- lowest concentration at which an increase in Safranin-O and type II collagen stains is observed ([1]; 21 days): 25 µM
- DNA content of cell-laden hydrogels (cell viability) [1]: did not elicit a statistically significant difference
- type II collagen immunostaining, stain intensity versus no analog ([1]; 21 days, 25 μM and 150 μM): slight increase in stain intensity
- change in sGAG deposition compared to no exposure ([1]; 21 days, 50 μM): almost doubling
- increase in collagen accumulation compared to no exposure ([1]; 21 days, 50 μM and 100 μM): almost doubling
- total collagen accumulation normalized to DNA ([1]; 21 days, 50 μM and 100 μM): significant increase
- type II collagen immunostaining ([1]; 21 days, 50 μM and 100 μM): increase in type II collagen immunostaining
- sGAG accumulation normalized to DNA ([1]; 21 days, at 150 μM): decreased
- sGAG accumulation normalized to DNA ([1]; 21 days, concentrations up to 100 μM, versus no analog): increase in sGAG accumulation
- IκBα gene expression [2]: decreased
- MMP13, NFκB1 and IκBα expression levels relative to unstimulated chondrocytes [2]: near to that of unstimulated
- NFKB1 gene expression [2]: decreased
- aggrecan, type II collagen and type I collagen expression relative to unstimulated chondrocytes [2]: approached expression levels found in unstimulated chondrocytes
- MMP13 gene expression ([2]; 150 μM): further decrease
- aggrecan gene expression [2, 6]: increased
- type II collagen gene expression [2, 6]: increased
- MMP13 gene expression ([2]; higher concentrations (through 100 μM)): decrease
- type I collagen gene expression ([2]; intermediate concentrations): increased
- MMP13 gene expression ([2]; low concentrations / lowest dose): initial increase
- expression levels of IL-1β, IκBα and iNOS ([3]; 4 hours exposure): able to alter expression levels of some of the genes
- expression levels of NFκB target genes (IL-1β, MMP13, ADAMTS4, ADAMTS5, iNOS, PGES, NFκB1, IκBα) ([3]; 24 hours exposure, MMP9 is the exception): decreased the expression levels of all genes evaluated
- DNA content of cell-laden hydrogels (cell viability) [4]: did not elicit a statistically significant difference
- sGAG deposition ([4]; 150 μM): a decrease was observed
- total collagen accumulation ([4]; above 50 μM): concentration dependent decrease
- type II collagen immunostaining ([4]; above 50 μM): dose-dependent decrease
- sGAG deposition ([4]; below 150 μM): did not have an effect
- total collagen accumulation ([4]; through 50 μM): maintained collagen accumulation
- type II collagen immunostaining ([4]; through 50 μM): no differences
- type I collagen gene expression [5]: concentration-dependent decrease
- MMP13 gene expression ([5]; after lowest dose through 100 μM): decrease
- IκBα and NFκB1 gene expression ([5]; except the highest concentrations): Neither of these genes changed
- IκBα and NFκB1 gene expression ([5]; highest concentrations studied): an increase was observed
- MMP13 gene expression ([5]; lowest dose): initial increase

SMILES: CCCC(=O)OC[C@H]1OC(O)[C@@H](NC(C)=O)[C@@H](OC(=O)CCC)[C@@H]1OC(=O)CCC (some centres unmarked) [ManNAc-a, 3,4,6-O-Bu3ManNAc]
- proteoglycan deposition (Safranin-O staining) ([1]; 21 days, at 150 μM): further increase
- sGAG accumulation normalized to DNA ([1]; 21 days, at 150 μM): further increase

SMILES: CCCC(=O)OC1OC(CO)[C@@H](OC(=O)CCC)[C@H](OC(=O)CCC)C1NC(C)=O (some centres unmarked) [1,3,4-O-Bu3GlcNAc, reference compound]
- DNA content of cell-laden hydrogels (cell viability) [1]: no statistical differences
- sGAG accumulation normalized to DNA ([1]; 21 days, across the concentrations evaluated): did not alter; also recorded: no statistical differences
- total collagen deposition normalized to DNA [1, 7]: did not alter; also recorded: no statistical differences
- DNA content of cell-laden hydrogels (cell viability) [4]: no statistical differences
- sGAG deposition normalized to DNA [4, 7]: did not alter; also recorded: no statistical differences
- total collagen deposition normalized to DNA [4, 7]: did not alter; also recorded: no statistical differences
